Laboratory results as given in PMC11566853, “Chemical genetic analysis of enoxolone inhibition of Clostridioides difficile toxin production reveals adenine deaminase and ATP synthase as antivirulence targets” (The Journal of Biological Chemistry, 2024).

Molecular target: T1, adenine deaminase (Ade) (Clostridioides difficile, UniProt A0A9R0BKJ2)
T1 construct: codon-optimized ade in pWL613a (pET28b derivative), N-terminal His-tag, expressed in E. coli BL21(DE3), Ni-NTA and Superdex 200
Assay: surface plasmon resonance, His-captured protein
Format: binding

T1 sequence (A0A9R0BKJ2 entry or part of it): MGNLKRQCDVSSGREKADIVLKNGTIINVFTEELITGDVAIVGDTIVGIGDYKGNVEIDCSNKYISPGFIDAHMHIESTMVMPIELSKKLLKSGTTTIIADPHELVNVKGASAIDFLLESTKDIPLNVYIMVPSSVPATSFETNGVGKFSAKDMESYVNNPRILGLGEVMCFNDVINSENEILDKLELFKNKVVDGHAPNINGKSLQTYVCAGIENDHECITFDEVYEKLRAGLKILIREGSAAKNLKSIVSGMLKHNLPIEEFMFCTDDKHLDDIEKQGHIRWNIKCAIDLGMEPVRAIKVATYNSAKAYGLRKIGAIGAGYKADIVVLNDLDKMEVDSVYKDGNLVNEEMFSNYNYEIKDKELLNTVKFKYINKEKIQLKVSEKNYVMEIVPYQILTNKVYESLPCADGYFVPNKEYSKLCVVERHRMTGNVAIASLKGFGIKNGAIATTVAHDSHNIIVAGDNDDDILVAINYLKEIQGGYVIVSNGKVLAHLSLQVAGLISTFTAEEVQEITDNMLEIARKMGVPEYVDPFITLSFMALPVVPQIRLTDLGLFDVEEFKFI

| Structure (SMILES) | Kd [µM] |
| --- | --- |
| Clc1ncnc2[nH]cnc12 [6-chloropurine] | 264 ± 42.9 |
| CC1(C)[C@@H](O)CC[C@]2(C)[C@H]3C(=O)C=C4[C@@H]5C[C@@](C)(C(=O)O)CC[C@]5(C)CC[C@@]4(C)[C@]3(C)CC[C@@H]12 [enoxolone] | 34.6 ± 13.4 |
